Reference: patent publication US11976038B1 (priority 2023, dated 2024)
Like-named read-outs stand apart in the source and are kept apart here. Blank lines part the entries; values can stand above or below the molecule they belong to.

What was measured:
[1] = format: physicochemical
Experimental: An appropriate amount of pure product of Embodiment 1 (about 50 mg) was weighed into a small aluminium box, and the weight of the sample was recorded after equilibration. For a thermogravimetric equipment, the temperature was selected to be 0° C. to 500° C., the heating rate to be 20° C./min, and the nitrogen flow rate to be 100 mL/min, and a thermogravimetric change curve was recorded. The initial reaction temperature was 300° C. according to a baseline extrapolation method. […] Curves A and B in FIG. 2 represent the rate of mass change and the mass change with increasing temperature, respectively.

[2] = background statement; cited from earlier work
[3] = background statement; cited from earlier work; remark: listed apart in the source
[4] = corn oil, 200 ppm; for Acid value / Conjugated diene value / Peroxide value: 60° C., after 6 days; for Conjugated diene value: absorbance 232 nm
[5] = corn oil, 200 ppm, oxidation induction time at 20° C. calculated from 100-130° C.
[6] = listed as Pure product of Comparative Example 5
[7] = listed as Pure product of Comparative Example 4

initial reaction temperature (thermal stability temperature) [1]: 290 °C
Molecule: Oc1ccc(C=Cc2cc(O)cc(O)c2)cc1 [Resveratrol, 3, 4′, 5-trihydroxystilbene]
solubility in oil [2]: 0.98 µg/g | oral bioavailability [3]: < 1%

Molecule: resveratrol conjugated linoleate [Comparative Example 5]
Acid value [4]: 0.60 mgKOH/g | Conjugated diene value [4, 6]: 3.65 | Peroxide value [4, 6]: 27.5 meq/kg | Shelf life [5, 6]: 71.3 days

initial reaction temperature (thermal stability temperature) [1]: 300 °C
Molecule: resveratrol nervonic acid ester [Embodiment 1]
antioxidant activity (DPPH radical scavenging activity) (10 mg in 1 mL 80% methanol, 30 min dark, 517 nm): 90.00% | antioxidant activity relative to resveratrol (DPPH, ratio to resveratrol): 1.03 times | acid value versus resveratrol and blank control (FIG. 4) ([4]; 60° C., 0, 1, 3, 6 days): basically lower than those of resveratrol and blank control | conjugated diene value versus resveratrol and blank control (FIG. 5) ([4]; 60° C., 0, 1, 3, 6 days): basically lower than those of resveratrol and blank control | peroxide value versus resveratrol and blank control (FIG. 3) ([4]; 60° C., 0, 1, 3, 6 days): basically lower than those of resveratrol and blank control | Acid value [4]: 0.55 mgKOH/g | Peroxide value [4]: 26.5 meq/kg | Conjugated diene value [4]: 3.33 | Shelf life [5]: 78.2 days

Molecule: resveratrol conjugated linoleate [Comparative Example 4]
Conjugated diene value [4, 7]: 3.60 | Peroxide value [4, 7]: 27 meq/kg | Shelf life [5, 7]: 71.4 days
